Where a SMILES comes first, the peptide text is derived from it. Bridges are numbered along the chain shown (N, C = ends). The star is where a group is joined. Carbamoyl = NC(=O)*
Legend:
Assay type in all cases: cell-based
Melanocortin receptor 4 = Melanocortin receptor 4 (Homo sapiens, UniProt P32245); assay: Displacement of [125I]-NDP-alpha-MSH from human MC4R expressed in CHO cells by Topcount beta counter analysis
Melanocortin receptor 5 = Melanocortin receptor 5 (Homo sapiens, UniProt P33032); assay: Displacement of [125I]-NDP-alpha-MSH from human MC5R expressed in CHO cells by Topcount beta counter analysis; conditions: read-out: pKi (converted)
Chain of Melanocortin receptor 5 (P33032 whole entry): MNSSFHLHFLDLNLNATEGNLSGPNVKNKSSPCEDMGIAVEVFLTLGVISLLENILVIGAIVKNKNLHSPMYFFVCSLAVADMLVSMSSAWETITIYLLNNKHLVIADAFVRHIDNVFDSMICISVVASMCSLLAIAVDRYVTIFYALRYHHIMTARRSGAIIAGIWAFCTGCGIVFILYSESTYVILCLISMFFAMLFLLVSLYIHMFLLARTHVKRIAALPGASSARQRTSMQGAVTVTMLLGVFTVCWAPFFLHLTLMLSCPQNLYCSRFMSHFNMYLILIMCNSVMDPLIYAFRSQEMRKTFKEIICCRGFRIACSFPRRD

[1] = molecular target: Melanocyte-stimulating hormone receptor (Homo sapiens, UniProt Q01726); assay: Displacement of [125I]-NDP-alpha-MSH from human MC1R expressed in CHO cells by Topcount beta counter analysis; conditions: read-out: pKi (converted)
Chain of Melanocyte-stimulating hormone receptor (Q01726 whole entry): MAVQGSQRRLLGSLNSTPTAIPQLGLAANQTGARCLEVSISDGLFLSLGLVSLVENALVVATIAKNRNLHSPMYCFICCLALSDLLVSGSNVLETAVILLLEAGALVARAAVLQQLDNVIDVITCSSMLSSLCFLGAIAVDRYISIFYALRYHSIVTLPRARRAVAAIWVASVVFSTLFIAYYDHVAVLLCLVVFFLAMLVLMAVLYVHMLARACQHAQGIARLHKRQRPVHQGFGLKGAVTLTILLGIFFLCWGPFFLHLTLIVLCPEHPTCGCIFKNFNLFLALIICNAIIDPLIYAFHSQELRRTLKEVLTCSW

Melanocortin receptor 3 = Melanocortin receptor 3 (Homo sapiens, UniProt P41968); assay: Displacement of [125I]-NDP-alpha-MSH from human MC3R expressed in HEK293 cells by Topcount beta counter analysis; conditions: read-out: pKi (converted)
Chain of Melanocortin receptor 3 (P41968 whole entry): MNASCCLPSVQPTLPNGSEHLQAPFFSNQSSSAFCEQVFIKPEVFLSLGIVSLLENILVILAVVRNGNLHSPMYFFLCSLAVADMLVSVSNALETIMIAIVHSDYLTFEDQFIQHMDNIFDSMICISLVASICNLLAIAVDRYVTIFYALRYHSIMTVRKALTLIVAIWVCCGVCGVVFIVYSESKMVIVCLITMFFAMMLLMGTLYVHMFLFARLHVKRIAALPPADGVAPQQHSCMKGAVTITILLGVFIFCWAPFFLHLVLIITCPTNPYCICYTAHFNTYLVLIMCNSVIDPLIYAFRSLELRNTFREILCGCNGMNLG

Chain of Melanocortin receptor 4 (P32245 whole entry): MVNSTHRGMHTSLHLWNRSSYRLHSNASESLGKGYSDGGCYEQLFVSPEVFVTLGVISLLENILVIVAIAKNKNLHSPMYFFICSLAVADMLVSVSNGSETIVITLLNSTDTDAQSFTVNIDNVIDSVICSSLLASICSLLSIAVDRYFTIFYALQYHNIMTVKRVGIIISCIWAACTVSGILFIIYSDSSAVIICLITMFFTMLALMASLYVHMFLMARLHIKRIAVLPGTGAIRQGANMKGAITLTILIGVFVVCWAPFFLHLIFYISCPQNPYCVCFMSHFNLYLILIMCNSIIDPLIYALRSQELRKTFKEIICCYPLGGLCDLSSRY

| Compound | Ki (Melanocortin receptor 4; read-out: Ki) [nM] | Ki (Melanocortin receptor 4; read-out: pKi (converted)) [nM] | Ki (Melanocortin receptor 5) [nM] | Ki [1] [nM] | Ki (Melanocortin receptor 3) [nM] |
| --- | --- | --- | --- | --- | --- |
| CC(C)C[C@H](NC(=O)[C@H](CCC(=O)O)NC(=O)[C@H](Cc1ccccc1)NC(=O)[C@H](CCC(N)=O)NC(=O)[C@H](CCC(N)=O)N1C(=O)[C@@H](NC(=O)[C@H](CCCCN)NC(=O)CNC(=O)[C@H](CCCCN)NC(=O)[C@H](Cc2ccccc2)NC(=O)CNC(=O)[C@@H]2CCCN2C(=O)[C@@H]2CCCN2C(=O)[C@H](CCCCN)NC(=O)[C@H](CCC(N)=O)NC(=O)[C@H](CCCCN)NC(=O)[C@H](CCC(N)=O)NC(=O)[C@H](CCC(N)=O)NC(=O)[C@H](Cc2ccc(O)cc2)NC(=O)[C@H](Cc2c[nH]cn2)NC(=O)[C@H](Cc2ccccc2)NC(=O)[C@@H](N)CC(C)C)Cc2ccccc21)C(=O)N[C@@H](CCCNC(=N)N)C(=O)N1CCC[C@H]1C(=O)N1CCC[C@H]1C(=O)O | 91 | 89.1 |  |  |  |
| H-LFHYQQKQKPPGFKGKFQQFKLRPP-NH2 | 9 | 8.13 |  |  |  |
| H-LFHYQQKQKPPGFEGKFQQFKLRPP-OH | 262 | 257 |  |  |  |
| H-LFHYQQKQKPPGFAGKFQQFKLRPP-OH | 54 |  |  |  |  |
| CC(C)C[C@@H]1NC(=O)[C@H](CCC(N)=O)NC(=O)[C@@H](NC(=O)[C@H](Cc2ccc(O)cc2)NC(=O)[C@H](Cc2c[nH]cn2)NC(=O)[C@H](Cc2ccccc2)NC(=O)[C@@H](N)CC(C)C)CSSC[C@@H](C(=O)N[C@@H](CCC(N)=O)C(=O)N[C@@H](Cc2ccccc2)C(=O)N[C@@H](CCCCN)C(=O)N[C@@H](CC(C)C)C(=O)N[C@@H](CCCNC(=N)N)C(=O)N2CCC[C@H]2C(=O)N2CCC[C@H]2C(=O)O)NC(=O)[C@H](Cc2ccccc2)NC(=O)[C@H](CCCCN)NC(=O)CNC(=O)[C@H](CCCCN)NC(=O)[C@H](Cc2ccccc2)NC(=O)CNC(=O)[C@@H]2CCCN2C(=O)[C@@H]2CCCN2C(=O)[C@H](CC(C)C)NC(=O)[C@H](CCC(N)=O)NC1=O (H-LFHYCQLQLPPGFKGKFCQFKLRPP-OH; disulfide 5-18) |  | 93.3 | 117 | 398 | 275 |
| CC(C)C[C@H](NC(=O)[C@H](CCCCN)NC(=O)[C@H](Cc1ccccc1)NC(=O)[C@H](CCC(N)=O)NC(=O)[C@@H]1CSSC[C@H](NC(=O)[C@H](CCC(N)=O)NC(=O)[C@H](C)NC(=O)[C@H](CCC(N)=O)NC(=O)[C@H](C)NC(=O)[C@H](Cc2ccc(O)cc2)NC(=O)[C@H](Cc2c[nH]cn2)NC(=O)[C@H](Cc2ccccc2)NC(=O)[C@@H](N)CC(C)C)C(=O)N2CCC[C@H]2C(=O)N2CCC[C@H]2C(=O)NCC(=O)N[C@@H](Cc2ccccc2)C(=O)N[C@@H](CCCCN)C(=O)NCC(=O)N[C@@H](CCCCN)C(=O)N[C@@H](Cc2ccccc2)C(=O)N1)C(=O)N[C@@H](CCCNC(=N)N)C(=O)N1CCC[C@H]1C(=O)N1CCC[C@H]1C(=O)O (H-LFHYAQAQCPPGFKGKFCQFKLRPP-OH; disulfide 9-18) |  | 245 |  |  |  |
| H-HYQQKQKPPGFKGKFQQFKLRPP-OH | 2200 | 2040 |  |  |  |
| CC(C)C[C@H](NC(=O)[C@H](CCCCN)NC(=O)[C@H](Cc1ccccc1)NC(=O)[C@H](CCC(N)=O)NC(=O)[C@H](CSC(N)=O)NC(=O)[C@H](Cc1ccccc1)NC(=O)[C@H](CCCCN)NC(=O)CNC(=O)[C@H](CCCCN)NC(=O)[C@H](Cc1ccccc1)NC(=O)CNC(=O)[C@@H]1CCCN1C(=O)[C@@H]1CCCN1C(=O)[C@H](CCCCN)NC(=O)[C@H](CCC(N)=O)NC(=O)[C@H](CCCCN)NC(=O)[C@H](CCC(N)=O)NC(=O)[C@H](CSC(N)=O)NC(=O)[C@H](Cc1ccc(O)cc1)NC(=O)[C@H](Cc1cnc[nH]1)NC(=O)[C@H](Cc1ccccc1)NC(=O)[C@@H](N)CC(C)C)C(=O)N[C@@H](CCCNC(=N)N)C(=O)N1CCC[C@H]1C(=O)N1CCC[C@H]1C(=O)O (H-LFHYC(Carbamoyl)QKQKPPGFKGKFC(Carbamoyl)QFKLRPP-OH) |  | 12.6 | 135 | 110 | 37.2 |
| H-LAHYQQKQKPPGFKGKFQQFKLRPP-OH | 236 |  |  |  |  |
| H-LFHYQQKQKPPGFKGKFQQFKL-OH | 29 | 27.5 |  |  |  |
| H-LFHYQQKQKPPGFKGEFQQFKLRPP-OH | 203 |  |  |  |  |
| H-LFHYQQKQKPPGFKGAFQQFKLRPP-OH | 75 | 72.4 |  |  |  |

From ChEMBL document CHEMBL5113520, “From a Cone Snail Toxin to a Competitive MC4R Antagonist” (J Med Chem, 2022)
